For orientation: inhibition means how much of the control response was suppressed. A word on the Ki: it is the equilibrium dissociation constant of an inhibitor or competing ligand from its target. A word on the IC50: it is the point on the concentration scale where inhibition reaches its midpoint.

In assay [1] the test system is CV-1. Kind of assay: Antiviral efficacy measured by a hybrid HIV-l/vaccinia virus infected monkey cell line (HIV- l/vVK-1 infected CV- 1) which produces HIV-1 gag-pol derived polyproteins at 10 uM concentration. It is filed as functional, Human immunodeficiency virus 1. The settings on record: Chlorocebus aethiops.
For assay [2], the target named is Human immunodeficiency virus type 1 protease (Human immunodeficiency virus 1, UniProt Q72874). Kind of assay: Evaluated for inhibitory activity against HIV-1 protease.
The test system of assay [3] is CV-1. In words: Antiviral efficacy measured by a hybrid HIV-l/vaccinia virus infected monkey cell line (HIV- l/vVK-1 infected CV- 1) which produces HIV-1 gag-pol derived polyproteins. The settings on record: Chlorocebus aethiops. It is filed as functional, cell-based, Human immunodeficiency virus 1.
The next assay deals with Pepsin A (Sus scrofa, UniProt P00791). Kind of assay: Compound was evaluated for aspartyl protease inhibition selectivity relative to pepsin. On the set-up: species or system Homo sapiens.
Pepsin A, sequence (P00791 whole entry): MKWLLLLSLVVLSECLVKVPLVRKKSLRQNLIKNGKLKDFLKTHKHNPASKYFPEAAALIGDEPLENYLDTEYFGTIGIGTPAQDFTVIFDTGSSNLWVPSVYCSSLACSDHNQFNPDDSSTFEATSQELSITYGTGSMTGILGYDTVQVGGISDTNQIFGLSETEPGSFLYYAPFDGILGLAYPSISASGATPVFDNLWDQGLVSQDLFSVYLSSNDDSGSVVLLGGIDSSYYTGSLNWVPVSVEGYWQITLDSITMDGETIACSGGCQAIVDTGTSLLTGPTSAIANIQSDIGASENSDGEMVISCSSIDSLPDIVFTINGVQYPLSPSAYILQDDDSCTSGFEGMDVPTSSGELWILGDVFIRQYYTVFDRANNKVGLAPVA
A further assay concerns the target T1, Renin (Homo sapiens, UniProt P00797).
T1 sequence (P00797 whole entry): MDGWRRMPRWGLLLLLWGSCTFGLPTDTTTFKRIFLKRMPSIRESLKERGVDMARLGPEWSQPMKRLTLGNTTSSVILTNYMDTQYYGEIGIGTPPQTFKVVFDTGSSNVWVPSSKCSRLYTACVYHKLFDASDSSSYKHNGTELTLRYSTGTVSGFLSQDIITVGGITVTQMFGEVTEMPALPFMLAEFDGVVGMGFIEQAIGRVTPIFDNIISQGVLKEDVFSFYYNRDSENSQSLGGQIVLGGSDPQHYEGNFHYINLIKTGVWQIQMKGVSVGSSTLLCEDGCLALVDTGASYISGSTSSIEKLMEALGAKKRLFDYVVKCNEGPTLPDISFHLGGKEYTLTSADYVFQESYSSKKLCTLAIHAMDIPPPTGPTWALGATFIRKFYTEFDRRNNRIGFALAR
Kind of assay: Compound was evaluated for aspartyl protease inhibition selectivity relative to renin.

For another assay, the target named is T2, Cathepsin E (Homo sapiens, UniProt P14091).
T2 sequence (P14091 whole entry): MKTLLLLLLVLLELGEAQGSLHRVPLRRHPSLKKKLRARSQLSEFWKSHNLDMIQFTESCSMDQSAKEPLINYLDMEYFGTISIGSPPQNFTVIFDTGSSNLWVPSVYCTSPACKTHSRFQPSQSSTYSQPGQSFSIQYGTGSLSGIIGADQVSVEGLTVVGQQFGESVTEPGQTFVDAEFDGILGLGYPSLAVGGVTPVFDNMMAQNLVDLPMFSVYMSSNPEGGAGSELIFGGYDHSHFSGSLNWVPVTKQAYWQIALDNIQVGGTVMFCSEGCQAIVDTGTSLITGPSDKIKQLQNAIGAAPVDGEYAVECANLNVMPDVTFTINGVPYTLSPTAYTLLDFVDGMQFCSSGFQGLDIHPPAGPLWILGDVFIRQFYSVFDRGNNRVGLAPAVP
Kind of assay: Compound was evaluated for aspartyl protease inhibition selectivity relative to Cathepsin E.

The next assay addresses Cathepsin D (Homo sapiens, UniProt P07339). In words: Compound was evaluated for aspartyl protease inhibition selectivity relative to Cathepsin D.

Cathepsin D, sequence (P07339 65-162 limits assumed): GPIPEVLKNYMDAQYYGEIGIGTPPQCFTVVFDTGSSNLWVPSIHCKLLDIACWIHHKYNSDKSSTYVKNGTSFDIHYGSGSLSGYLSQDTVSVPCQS
Cathepsin D, sequence (P07339 169-412 limits assumed): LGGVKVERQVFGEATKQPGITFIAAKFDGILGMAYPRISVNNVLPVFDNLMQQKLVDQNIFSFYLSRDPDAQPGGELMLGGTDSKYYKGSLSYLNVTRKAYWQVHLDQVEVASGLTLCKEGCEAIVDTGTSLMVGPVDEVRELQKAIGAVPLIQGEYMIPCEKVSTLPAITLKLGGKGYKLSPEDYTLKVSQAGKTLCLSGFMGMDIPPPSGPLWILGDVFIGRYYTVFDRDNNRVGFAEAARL

For `CC[C@H](C)[C@H](NC(=O)[C@@H](C[C@H](O)[C@H](CC1CCCCC1)NC(C)=O)C(C)C)C(=O)NCc1cccc[n+]1[O-]`, in the assay on CV-1 [1], the inhibition at 10 µM came to 20%. Further, the Ki in assay [2] came to 16 nM.
Consider `CCC(C)[C@H](NC(=O)[C@@H](C[C@H](O)[C@H](CC1CCCCC1)NC(=O)CC(C)(C)C)C(C)C)C(=O)NCc1ccccn1` (some centres undefined), for which, in the assay with CV-1 [1], the inhibition at 10 µM was found to be 75%. In assay [2], this compound displayed a Ki of 75 nM. In addition, the IC50 with CV-1 [3] amounted to 3000 nM.
Take `CCC(C)[C@H](NC(=O)[C@@H](C[C@H](O)[C@H](CC1CCCCC1)NC(=O)[C@H](Cc1c[nH]cn1)NC(=O)COc1cccc2ccccc12)C(C)C)C(=O)NCc1ccccn1` (some centres undefined): the Ki at Pepsin A was 290 nM; at Renin, 2 nM; on Cathepsin E it was 50 nM; in assay [2] it was 5 nM; on Cathepsin D it was 200 nM. For the same compound, the inhibition at 10 µM in the assay on CV-1 [1] is 100%. Besides, the IC50 with CV-1 [3] was 300 nM.
In the assay on CV-1 [1], `CCC(C)[C@H](NC(=O)[C@@H](C[C@H](O)[C@H](CC1CCCCC1)NC(=O)COc1ccccc1)C(C)C)C(=O)NCc1ccccn1` (some centres undefined) yielded an inhibition at 10 µM of 90%. For the same compound, affinity in assay [2] was put at a Ki of 61 nM. This compound also returned a half-inhibitory concentration (IC50) with CV-1 [3] of 3000 nM.
`CCC(C)[C@H](NC(=O)[C@@H](C[C@H](O)[C@H](CC1CCCCC1)NC(=O)[C@H](CC(N)=O)NC(=O)c1ccc2ccccc2n1)C(C)C)C(=O)NCc1ccccn1` (some centres undefined): the Ki was determined as 12 nM at Pepsin A; 212 nM at Renin; 3 nM at Cathepsin E; 9 nM in assay [2]; 2 nM at Cathepsin D. Besides, the inhibition at 10 µM in the assay on CV-1 [1] was 97%. In the assay with CV-1 [3], this compound came in with an IC50 of 300 nM.
`CC[C@H](C)[C@H](NC(=O)[C@H](C(C)C)[C@@H](O)[C@H](O)[C@H](CC1CCCCC1)NC(=O)[C@H](Cc1c[nH]cn1)NC(=O)COc1cccc2ccccc12)C(=O)NCc1ccccn1`: the Ki was 265 nM at Pepsin A; 2 nM at Renin; 142 nM at Cathepsin E; less than 1 nM in assay [2]; more than 1000 nM at Cathepsin D. Also, the inhibition at 10 µM in the assay with CV-1 [1] worked out at 100%. In addition, in the assay on CV-1 [3], the IC50 was 200 nM.
For the compound `CCC(C)[C@H](NC(=O)[C@@H](C[C@H](O)[C@H](CC1CCCCC1)NC(=O)[C@@H](NC(=O)COc1cccc2ccccc12)C(C)C)C(C)C)C(=O)NCc1ccccn1` (some centres undefined), 10 µM produced 93% inhibition in the assay with CV-1 [1]. The same compound returned a Ki in assay [2] of 61 nM. This compound also returned an IC50 in the assay on CV-1 [3] of 300 nM.
In the assay on CV-1 [1], `CCC(C)[C@H](NC(=O)[C@@H](C[C@H](O)[C@H](CC1CCCCC1)NC(=O)[C@H](CC(N)=O)NC(=O)c1ccc2ccccc2n1)C(C)C)C(=O)O` (some centres undefined) returned an inhibition at 10 µM of 0%.
Compound `CCC(C)[C@H](NC(=O)[C@@H](C[C@H](O)[C@H](CC1CCCCC1)NC(=O)[C@H](CC(N)=O)NC(=O)COc1cccc2ccccc12)C(C)C)C(=O)NCc1ccccn1` (some centres undefined) returned an inhibition at 10 µM in the assay on CV-1 [1] of 93%. The compound also showed a Ki in assay [2] of 4 nM. For the same compound, it took 300 nM to reach half-maximal inhibition in the assay on CV-1 [3] (IC50).
For `CCC(C)[C@H](NC(=O)[C@@H](C[C@H](O)[C@H](CC1CCCCC1)NC(=O)c1ccccn1)C(C)C)C(=O)NCc1ccccn1` (some centres undefined) the same measures were 100%, 8 nM and 300 nM.
Turning to `CC[C@H](C)[C@H](NC(=O)[C@@H](C[C@H](O)[C@@H](N)CC1CCCCC1)C(C)C)C(=O)NCc1ccccn1`, 10 µM produced 0% inhibition with CV-1 [1]. Moreover, affinity in assay [2] was put at a Ki of 800 nM.
For the compound `CC(C)[C@H](C[C@H](O)[C@H](CC1CCCCC1)NC(=O)C(CC(N)=O)NC(=O)c1ccc2ccccc2n1)C(=O)NCC(C)(C)C` (some centres undefined), the inhibition at 10 µM in the assay with CV-1 [1] was found to be 70%. Also, the affinity in assay [2] corresponds to a Ki of 14 nM. In the assay with CV-1 [3], this compound gave an IC50 of 300 nM.
In the assay with CV-1 [1], `CCCCCC(=O)N[C@@H](CC1CCCCC1)[C@@H](O)C[C@H](C(=O)N[C@H](C(=O)NCc1ccccn1)C(C)CC)C(C)C` (some centres undefined) had an inhibition at 10 µM of 67%. The compound also came in with a Ki in assay [2] of 47 nM. Moreover, the IC50 in the assay on CV-1 [3] was determined as 3000 nM.
In the assay with CV-1 [1], `CCC(C)[C@H](NC(=O)[C@@H](C[C@H](O)[C@H](CC1CCCCC1)NC(=O)[C@H](Cc1cn(C)cn1)NC(=O)COc1cccc2ccccc12)C(C)C)C(=O)NCc1ccccn1` (some centres undefined) came in with an inhibition at 10 µM of 85%. In assay [2], this compound returned a Ki of 30 nM. Also, the IC50 with CV-1 [3] was found to be 500 nM.
In the same order, the values of `CCC(C)[C@H](NC(=O)[C@@H](C[C@H](O)[C@H](CC1CCCCC1)NC(=O)[C@H](Cc1cnc[nH]1)NC(=O)OC(C)(C)C)C(C)C)C(=O)NCc1ccccn1` (some centres undefined) are 53%, 10 nM and 10000 nM.
In turn, `CC[C@H](C)[C@H](NC(=O)[C@@H](C[C@H](O)[C@H](CC1CCCCC1)NC(C)=O)C(C)C)C(=O)NCc1ccccn1` returned an inhibition at 10 µM in the assay with CV-1 [1] of 50%. The Ki in assay [2] stood at 8 nM.
For the compound `CCC(C)[C@H](NC(=O)[C@@H](C[C@H](O)[C@H](CC1CCCCC1)NC(=O)OC(C)(C)C)C(C)C)C(=O)NCc1ccccn1` (some centres undefined), the Ki at Pepsin A came out at 330 nM; at Renin, 1200 nM; on Cathepsin E, 90 nM; in assay [2] it was 8 nM; at Cathepsin D, 100 nM. The compound also came in with an inhibition at 10 µM with CV-1 [1] of 100%. Moreover, in the assay on CV-1 [3], the midpoint of inhibition, the IC50, lay at 300 nM.
On to `CC[C@@H](C)[C@@H](NC(=O)[C@@H](C[C@H](O)[C@H](CC1CCCCC1)NC(C)=O)C(C)C)C(=O)NCc1ccccn1`, for which, in the assay with CV-1 [1], the inhibition at 10 µM turned out to be 22%. In addition, in assay [2], the inhibition constant Ki was more than 1000 nM.
